From PMC10108821, “Three tyrosine kinase inhibitors cause cardiotoxicity by inducing endoplasmic reticulum stress and inflammation in cardiomyocytes” (BMC Medicine, 2023)

How the values were obtained:
[1] = test system: NRCMs; details: ISRIB 200 nM or 4μ8c 10 μM with 10 µM sorafenib, 24-hr
Experimental: After treatment, cells were stained with 5 μg/mL Propidium iodide (Sigma-Aldrich) mixed with Hoechst33342 (Solarbio) in Phenol red-free DMEM (Procell) in a 5% CO2 incubator at 37°C for 30 minutes. Images of PI staining were acquired through the filter Ex/Em=555/624nm and of the nuclei staining through the filter Ex/Em=405/452 using ImageXpress Micro Confocal-AWES (Molecular Devices).

[2] = test system: NRCMs; test: qRT-PCR of fetal, pro-inflammatory and ER stress genes with pathway-selective inhibitors; assay type: cell-based, rat; details: 24 h
Experimental: (§1) Rats were euthanized by decapitation and thoracic cavity was opened with scissors and hearts were popped out of the opening gently with fingers. Hearts were clipped and put in HBSS immediately; 20–40 hearts were collected into one sterile vial containing a magnetic stir bar and 1 mL digestive media made of 0.1% trypsin (Macklin) and 0.05% collagenase (Gibco) in HBSS. Hearts were minced until they were uniform in size. Digestive media was added to 10 mL for 40 hearts and stirred gently for 6 min. Supernatant was discarded and the digestion was repeated once; 10 mL digestive media was added and stirred gently for 10 min. The supernatant with cells were collected and the digestion and collection were repeated 4 times. Cells were centrifuged at 1200 rpm for 5 min, resuspended in media (Dulbecco’s modified Eagleʼs medium (Gibco)) with 10% fetal bovine serum (FBS; VISTECH), 1% penicillin–streptomycin, and 1% 0.1 M 5-bromo-2-deoxyuridine solution (Shanghai Yuanye) and filtered through a 40-μm cell strainer. Cells were seeded on a 100-mm plastic dish and cultured in a 5% CO2 incubator at 37 °C for 2 h to allow non-myocytes to adhere to the plate. The dish was swirled and media gently pipetted up and down to detach lightly attached cardiomyocytes. The collected myocytes were seeded in the same media described before; 48 h after plating, medium was exchanged to fresh DMEM (Gibco) with or without 2% FBS. All drug treatments were performed after this media change.
(§2) RNA was isolated based on a standard protocol using TRIzol reagent (Vazyme). TRIzol (1ml per 1 well of a 6-well plate) was used to lyse cells and chloroform was added for RNA separation. Samples were shaked vigorously by hand for 15 seconds and incubated at room temperature for 2-3 minutes. RNA was present in the aqueous phase after centrifuge at 12000 x g for 15 minutes. Isopropyl alcohol was mixed to precipitate RNA from the aqueous phase. RNA precipitations were washed with 75% ethanol once and re-dissolved in RNase-free water. 1 μg total RNA was used for cDNA synthesis using a reverse transcription kit (Bioman). We then measured expression of genes of interest with SYBRR Green qPCR Mix (Bioman) using Applied Biosystems 7500 Quantitative PCR Instrument. Gene expression was normalized to the 18S ribosomal RNA expression and primers were listed in Primers Table.

[3] = test system: Cor.4U hiPSC-CMs; test: ATP level (CellTiter-Glo) in hiPSC-CMs; assay type: cell-based, human; details: for effect on ATP levels: 0.32 to 10 µM, day 1 to day 5; for dose-dependent toxicity (ATP fold changes): day 1, different doses; for dose-dependent toxicity (ATP fold changes) / time-dependent toxicity (ATP fold changes): RNAseq conditions; for time-dependent toxicity (ATP fold changes): fixed dose over 5 days
Experimental: ATP content was measured using the CellTiter-Glo Luminescent Cell Viability Assay (Promega) following the manufacturer’s protocol. After adding CellTiter-Glo reagents and incubation, luminescence was quantified using a Synergy H1 plate reader (BioTek Instruments). ATP standards were prepared from 0.01 to 5 μM. For each drug, we fitted a four-parameter log-logistic model to calculate ED50 at day 5 (Fig S1). To rank the cellular toxicity of the eight TKIs (Fig 1T), we calculated (EC50-Cmax)/(EC50+Cmax) and arranged from the smallest to the biggest for increasing cellular toxicity.

[4] = test system: patients; details: cited from earlier work; for level of cardiotoxicity based on literature reports: ref Table S1, 2, 4, 26–36
[5] = test system: HELP hiPSC-CMs; test: CardioExcyte 96 microelectrode array: base impedance and extracellular field potential; assay type: cell-based, human; details: fixed doses: 10 µM, crizotinib and ponatinib 3.16 µM; up to 24 h
Experimental: HELP hiPSC-CMs were seeded evenly into the 96-well microelectrode array, NSP-96 0.6mm sensor plate (Nanion technologies), at 50,000 cells per well. Measurements were started after 3-5 days of culture of these cells and until the impedance and the extracellular field potential are stable. Measurements were taken a few times before drug addition, and every 30~60 minutes after the drugs were added at 2x concentration. Values were averaged from 3 wells per group. Beat rate, amplitude of impedance, base impedance and FPDc were calculated by the Cardio Excyte Control 96 software package (Nanion Technologies).

[6] = test system: Cor.4U hiPSC-CMs; test: 3'DGE-UMI RNAseq transcriptome of hiPSC-CMs; details: for expression of mitochondrial tRNA and electron transfer chain genes: high PC2 loadings; for expression of genes associated with heart contraction: Cluster 4, day 3 or day 5
[7] = test system: NRCMs; test: Seahorse assay: oxygen consumption and extracellular acidification; assay type: cell-based, rat; details: 24 h; fixed doses: 10 µM, crizotinib and ponatinib 3.16 µM
Experimental: as §1
NRCMs were seeded evenly into the Seahorse XF96 cell culture plates (Agilent) and cultured in DMEM high glucose with 2% FBS. About 2 hours before the test, cells were moved to a non-CO2 incubator at 37 ° C and incubated for 1 hour. 1 hour prior to the test, culture media was replaced with the Seahorse Basal DMEM at 37°C (with appropriate concentration of glucose, 4mM L-glutamine, 1 mM sodium pyruvate and 1% penicillin-streptomycin solution) and incubated in a non-CO2 incubator at 37°C for 1 hour. Drugs were prepared at 8x to 10x concentrations with the corresponding seahorse media as in each well and added into ports of Seahorse XF96 cartridge plates which have been hydrated overnight. XFe96 Extracellular Flux Analyzer (Agilent) was used to measure oxygen consumption rate and extracellular acidification rate of cells with different drug treatments.

[8] = test system: NRCMs; test: Lipid peroxidation by C11-bodipy 581/591 and flow cytometry; details: 100 µM, 3 hours, Fig. S15
Experimental: For ROS assessment, cells were washed with PBS once and stained with 10μM H2DCFHDA (MCE) in phenol red-free DMEM (Procell) in a humid incubator with 5% CO2 at 37°C for 30 minutes. Cells were washed with PBS twice and dissociated to single cells before flow cytometry analysis at the FITC channel. For lipid peroxidation measurement, cells were washed with PBS once and stained with 2μM C11-bodipy^581/591 (Cayman) in phenol red-free DMEM (Procell) in a humid incubator with 5% CO2 at 37°C for 30 minutes. Cells were washed with PBS twice and dissociated to single cells before flow cytometry analysis at both the FITC and the PE channels. Fluorescence of the oxidized C11-bodipy were acquired through the FITC channel (Ex/Em=488/520nm) and that of the non-oxidized C11-bodipy through the PE channel (Ex/Em=555/624nm).

[9] = test system: NRCMs; test: Mitochondrial membrane potential by TMRE staining; assay type: cell-based, rat; details: 24 h of treatment
[10] = test system: H9C2 cell line; test: qRT-PCR of inflammatory genes in H9C2 cells; assay type: cell-based, rat; details: ISRIB 200 nM or salubrinal 20 μM with 3 TKIs, 24-hr
Experimental: as §2
H9C2 cells were a gift from Dr. Rong Qi in Peking University Health Science Center (they were originally purchased from the Cell Bank/Stem cell bank, Chinese Academy of Science). […] Media was changed to DMEM (Gibco) containing 2% FBS 12 hours before treatment. All treatments were performed under DMEM containing 2% FBS.

[11] = test system: ER stress genes in NRCMs; test: qRT-PCR of ER stress genes in NRCMs; assay type: cell-based, rat; details: trolox 1 mM with afatinib or sorafenib
Experimental: as §1, with “The collected myocytes were seeded in the same media described before; 48 h after plating, medium was exchanged to fresh DMEM (Gibco) with or without 2% FBS.” left out
as §2, with “RNA precipitations were washed with 75% ethanol once and re-dissolved in RNase-free water.” left out

Row | effect on beat rate, contraction, base impedance and corrected field potential duration [5] | Structure (SMILES) | effect on ATP levels [3] | dose-dependent toxicity (ATP fold changes) [3] | level of cardiotoxicity based on literature reports [4] | basal oxygen consumption rate (OCR) [7] | also measured
1 |  | Cc1cc(=O)oc2c(C=O)c(O)ccc12 [4μ8c] |  |  |  |  | rescue from cell death induced by sorafenib [1]: significantly rescued cardiac cell from death induced by sorafenib; induction of inflammatory genes and cardiac fetal genes (Anp, Bnp/Nppb, Myh6) by TKIs ([2]; 4μ8c 10 μM co-treatment with TKIs): blunted; effect on Atf4, Ddit3, Xbp1s and Dnajb9 expression induced by TKIs ([2]; ISRIB 200 nM or 4μ8c 10 μM with TKIs): inhibited Xbp1s and Dnajb9 without affecting the ATF4 axis
2 |  | CC(C)(OO)c1ccccc1 [cumene hydroperoxide] |  |  |  |  | level of lipid peroxidation, positive control [8]: 42%
3 | minimal effects on these parameters | Cc1nc(Nc2ncc(C(=O)Nc3c(C)cccc3Cl)s2)cc(N2CCN(CCO)CC2)n1 [dasatinib] | did not inhibit ATP at any dose or time point tested | did not | medium-levels of cardiotoxicity | trend of inhibiting basal oxygen consumption rate (OCR) | time-dependent toxicity (ATP fold changes) [3]: increasing toxicity with treatment duration; expression of genes associated with heart contraction [6]: upregulated
4 | minimal effects on these parameters | COc1cc2ncnc(Nc3ccc(F)c(Cl)c3)c2cc1OCCCN1CCOCC1 [gefitinib] | did not inhibit ATP at any dose or time point tested | did not | low cardiotoxicity |  | expression of genes associated with heart contraction [6]: upregulated
5 | minimal effects on these parameters | Cc1cn(-c2cc(NC(=O)c3ccc(C)c(Nc4nccc(-c5cccnc5)n4)c3)cc(C(F)(F)F)c2)cn1 [nilotinib] | dose-dependent and time-dependent reduction in ATP levels |  | medium-levels of cardiotoxicity |  | mitochondrial membrane potential [9]: trend of decreasing mitochondrial membrane potentials; EC50 (ATP) compared with maximal plasma concentration (Cmax) ([3]; day 5): lower than or similar to their maximal plasma concentrations (Cmax)
6 |  | O=C(/C=C/c1ccccc1)NC(NC(=S)Nc1cccc2cccnc12)C(Cl)(Cl)Cl (stereo not drawn) [salubrinal] |  |  |  |  | expression of inflammatory genes induced by TKIs [10]: increased the expression level of some pro-inflammatory genes, such as Nfkb1, Il6, and Tnf, but not Il1b
7 |  | Cc1c(C)c2c(c(C)c1O)CCC(C)(C(=O)O)O2 (stereo not drawn) [trolox] |  |  |  |  | effect on induction of ER stress by TKIs [11]: did not block the induction of ER stress by these TKIs

Row | Structure (SMILES) | effect on beat rate, contraction, base impedance and corrected field potential duration [5] | effect on ATP levels [3] | dose-dependent toxicity (ATP fold changes) [3] | level of cardiotoxicity based on literature reports [4] | basal oxygen consumption rate (OCR) [7] | also measured
8 | C[C@@H](Oc1cc(-c2cnn(C3CCNCC3)c2)cnc1N)c1c(Cl)ccc(F)c1Cl [crizotinib] | stopped beating and contraction of hiPSC-CMs after 0.5 h of treatment | dose-dependent and time-dependent reduction in ATP levels | dose-dependent toxicity | medium-levels of cardiotoxicity | trend of inhibiting basal oxygen consumption rate (OCR) | expression of mitochondrial tRNA and electron transfer chain genes [6]: upregulated
9 | CCN(CC)CCNC(=O)c1c(C)[nH]c(/C=C2\C(=O)Nc3ccc(F)cc32)c1C [sunitinib] | increased beat rate initially and reduced the base impedance very acutely | dose-dependent and time-dependent reduction in ATP levels | dose-dependent toxicity | high-levels of cardiotoxicity | trend of inhibiting basal oxygen consumption rate (OCR) | mitochondrial membrane potential [9]: trend of decreasing mitochondrial membrane potentials; time-dependent toxicity (ATP fold changes) [3]: increasing toxicity with treatment duration; congestive heart failure ([4]; meta-analysis of 6935 patients): 4.1%; expression of mitochondrial tRNA and electron transfer chain genes [6]: upregulated; maximal, spare and non-mitochondrial oxygen consumption [7]: inhibited maximal, spare, and non-mitochondrial oxygen consumption significantly
